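GI50 is the concentration that inhibits growth by half. Definition used: TGI = concentration required for complete inhibition of growth.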
How the values were obtained:
Assay in all cases: NCI-60 cell line screen, 384-well format
786-0 renal = tested on: 786-0 renal
CAKI-1 renal = tested on: CAKI-1 renal
HCC-2998 colon = tested on: HCC-2998 colon
HS 578T breast = tested on: HS 578T breast
K-562 leukemia = tested on: K-562 leukemia
KM12 colon = tested on: KM12 colon
NCI-H460 NSCLC = tested on: NCI-H460 NSCLC
NCI/ADR-RES ovarian = tested on: NCI/ADR-RES ovarian
OVCAR-5 ovarian = tested on: OVCAR-5 ovarian
SF-268 CNS = tested on: SF-268 CNS
T-47D breast = tested on: T-47D breast
UACC-257 melanoma = tested on: UACC-257 melanoma
UACC-62 melanoma = tested on: UACC-62 melanoma

`O=S(=O)(c1ccc2c(c1)C(=NO)c1cc(S(=O)(=O)N3CCCCC3)ccc1-2)N1CCCCC1` was tested, and the GI50 ([…]-0 renal) was 0.223 µM, the TGI (786-0 renal) was 0.525 µM and the GI50 (CAKI-1 renal) was 0.019 µM. For the same compound, the TGI (CAKI-1 renal) was 0.0352 µM, the GI50 (HCC-2998 colon) was 0.166 µM and the TGI (HCC-2998 colon) was 0.303 µM. The GI50 (HS 578T breast) was 0.175 µM, the TGI (HS 578T breast) was 0.314 µM and the GI50 (K-562 leukemia) was 0.17 µM. For the same compound, the TGI (K-562 leukemia) was 0.313 µM, the GI50 (KM12 colon) was 0.177 µM and the TGI (KM12 colon) was 0.329 µM. The GI50 (NCI-H460 NSCLC) was 0.17 µM, the TGI (NCI-H460 NSCLC) was 0.314 µM and the GI50 (NCI/ADR-RES ovarian) was 0.342 µM. The TGI (NCI/ADR-RES ovarian) was 1.14 µM, the GI50 (OVCAR-5 ovarian) was 0.184 µM and the TGI (OVCAR-5 ovarian) was 0.324 µM. The GI50 (SF-268 CNS) was 0.165 µM, the TGI (SF-268 CNS) was 0.303 µM and the GI50 (T-47D breast) was 0.155 µM. It also gave a TGI (T-47D breast) of 0.29 µM, a GI50 (UACC-257 melanoma) of 0.18 µM and a TGI (UACC-257 melanoma) of 0.32 µM. It also gave a GI50 (UACC-62 melanoma) of 0.182 µM and a TGI (UACC-62 melanoma) of 0.323 µM.

Source: PubChem BioAssay (NCI)
